“And” between values parts separate entries of the source, which are not always exact repeats. Equal entries are not always repeated. Toxic doses and inconclusive results are not listed. The calls were made as follows: active = survival T/C of 150% or more; inactive = T/C below 125% in these data.
Test system: BDF1 mice, Lymphoma 8 ip, survival T/C
Assay: NCI In Vivo Anticancer Drug Screen. Data for tumor model Lymphoma 8 (intraperitoneal) in B6D2F1 (BDF1) mice
Settings: higher = longer survival
Procedure: The antitumor activity of compounds was measured in mice bearing transplantable tumors. Survival or tumor size were measured and the results are expressed as the measurement made in the treated group (T) divided by the measurement made in the vehicle treated control group (C). The tumor model used in this assay is Lymphoma 8 (intraperitoneal) in B6D2F1 (BDF1) mice

[1] = endpoint: survival time, mean or median, dose: 4.0 mg/kg/injection, schedule: Q01DX010 (ip), vehicle: saline
[2] = endpoint: survival time, mean or median, dose: 50.0 mg/kg/injection, schedule: Q01DX010 (ip), vehicle: saline
[3] = endpoint: survival time, mean or median, dose: 100.0 mg/kg/injection, schedule: Q01DX010 (ip), vehicle: saline
[4] = endpoint: survival time, mean or median, dose: 8.0 mg/kg/injection, schedule: Q01DX010 (ip), vehicle: saline
[5] = endpoint: survival time, mean or median, dose: 5.0 mg/kg/injection, schedule: Q01DX010 (ip), vehicle: saline
[6] = endpoint: survival time, mean or median, dose: 20.0 mg/kg/injection, schedule: Q01DX010 (ip), vehicle: saline

Measured: T/C

O=C(O)CC(NC(=O)CP(=O)(O)O)C(=O)O (configuration not stated)
inactive: endpoint: median survival time, dose: 62.2 mg/kg/injection, schedule: Q04DX003 (ip), vehicle: saline 101 % of control | endpoint: median survival time, dose: 104.0 mg/kg/injection, schedule: Q04DX003 (ip), vehicle: saline 114 % of control | endpoint: median survival time, dose: 173.0 mg/kg/injection, schedule: Q04DX003 (ip), vehicle: saline 103 % of control | endpoint: median survival time, dose: 288.0 mg/kg/injection, schedule: Q04DX003 (ip), vehicle: saline 108 % of control | endpoint: median survival time, dose: 480.0 mg/kg/injection, schedule: Q04DX003 (ip), vehicle: saline 111 % of control

NC(Cc1c[nH]c2ccc(N(CCCl)CCCl)cc12)C(=O)O (configuration not stated)
inactive: endpoint: survival time, mean or median, dose: 0.5 mg/kg/injection, schedule: Q01DX010 (ip), vehicle: saline 92 % of control | endpoint: survival time, mean or median, dose: 1.0 mg/kg/injection, schedule: Q01DX010 (ip), vehicle: saline 103 % of control | [1] 103 % of control

CCN(CC)CCNc1ccc(C)c2sc3ccccc3c(=O)c12
inactive: [2] 122 % of control | [3] 109 % of control

CN(N=O)C(=O)NC(C=O)C(O)C(O)C(O)CO (configuration not stated)
inactive: endpoint: survival time, mean or median, dose: 12.5 mg/kg/injection, schedule: Q01DX010 (ip), vehicle: saline 96 % of control | endpoint: survival time, mean or median, dose: 25.0 mg/kg/injection, schedule: Q01DX008 (ip), vehicle: saline 115 % of control | endpoint: survival time, mean or median, dose: 25.0 mg/kg/injection, schedule: Q01DX010 (ip), vehicle: saline 100 % of control | endpoint: survival time, mean or median, dose: 50.0 mg/kg/injection, schedule: Q01DX008 (ip), vehicle: saline 111 % of control | [2] 121 % of control | endpoint: survival time, mean or median, dose: 100.0 mg/kg/injection, schedule: Q01DX008 (ip), vehicle: saline 115 % of control | [3] 121 % of control

CC(Cl)CN(Cc1cc(O)c(CN(CC(C)Cl)CC(C)Cl)cc1O)CC(C)Cl (configuration not stated)
inactive: endpoint: survival time, mean or median, dose: 62.5 mg/kg/injection, schedule: Q01DX015 (ip), vehicle: carboxymethylcellulose (CMC) 100 % of control | endpoint: survival time, mean or median, dose: 125.0 mg/kg/injection, schedule: Q01DX015 (ip), vehicle: carboxymethylcellulose (CMC) 95 % of control | endpoint: survival time, mean or median, dose: 250.0 mg/kg/injection, schedule: Q01DX015 (ip), vehicle: carboxymethylcellulose (CMC) 94 % of control | endpoint: survival time, mean or median, dose: 500.0 mg/kg/injection, schedule: Q01DX015 (ip), vehicle: carboxymethylcellulose (CMC) 88 % of control and 91 % of control | endpoint: survival time, mean or median, dose: 750.0 mg/kg/injection, schedule: Q01DX015 (ip), vehicle: carboxymethylcellulose (CMC) 90 % of control | endpoint: survival time, mean or median, dose: 1000.0 mg/kg/injection, schedule: Q01DX015 (ip), vehicle: carboxymethylcellulose (CMC) 90 % of control

C[n+]1c2ccccc2nc2c(N)cc(N)cc21
inactive: [4] 121 % of control | endpoint: survival time, mean or median, dose: 12.0 mg/kg/injection, schedule: Q01DX010 (ip), vehicle: saline 117 % of control | endpoint: survival time, mean or median, dose: 18.0 mg/kg/injection, schedule: Q01DX010 (ip), vehicle: saline 107 % of control

CN(N=O)C(N)=O
inactive: [5] 114 % of control | [6] 110 % of control

CC(=O)OCC1OC(n2cnc3c(=S)nc[nH]c32)C(OC(C)=O)C1OC(C)=O (configuration not stated)
inactive: endpoint: survival time, mean or median, dose: 25.0 mg/kg/injection, schedule: Q01DX015 (ip), vehicle: carboxymethylcellulose (CMC) 101 % of control | endpoint: survival time, mean or median, dose: 50.0 mg/kg/injection, schedule: Q01DX015 (ip), vehicle: carboxymethylcellulose (CMC) 109 % of control | endpoint: survival time, mean or median, dose: 100.0 mg/kg/injection, schedule: Q01DX015 (ip), vehicle: carboxymethylcellulose (CMC) 104 % of control

CN(C)[C@@H]1C(=O)C(C(N)=O)=C(O)[C@@]2(O)C(=O)C3=C(O)c4c(O)cccc4C[C@H]3C[C@@H]12
inactive: endpoint: survival time, mean or median, dose: 15.0 mg/kg/injection, schedule: Q01DX015 (ip), vehicle: alkali diluted with saline 93 % of control | endpoint: survival time, mean or median, dose: 30.0 mg/kg/injection, schedule: Q01DX015 (ip), vehicle: alkali diluted with saline 89 % of control

COc1ccccc1CNCCO
inactive: [2] 103 % of control | [3] 103 % of control | endpoint: survival time, mean or median, dose: 200.0 mg/kg/injection, schedule: Q01DX010 (ip), vehicle: saline 93 % of control

C[C@@H]1C[C@@H]([C@H](O)CC2CC(=O)NC(=O)C2)C(=O)[C@@H](C)C1
inactive: [5] 115 % of control | endpoint: survival time, mean or median, dose: 10.0 mg/kg/injection, schedule: Q01DX010 (ip), vehicle: saline 105 % of control | [6] 115 % of control | endpoint: survival time, mean or median, dose: 40.0 mg/kg/injection, schedule: Q01DX010 (ip), vehicle: saline 120 % of control

Nc1nc(=S)c2ncn(C3OC(CO)C(O)C3O)c2[nH]1 (configuration not stated)
inactive: [1] 92 % of control | [4] 89 % of control

Source: PubChem BioAssay AID242 (DTP/NCI, 2004)
